Data on 20 molecules can be found in patent publication US9994594B2, “Inhibitors of arginase and their therapeutic applications” (MARS, INCORPORATED, priority 2010, dated 2018).

The test system of test [1] is MDSC. The conditions noted are these: tumor bearing mice; cited from earlier work.
Test [2] has as its system experimental autoimmune encephalomyelitis (EAE). The conditions noted are these: compared with control animals; cited from earlier work.
The subject of test [3] is penile erectile response. Description: Erectile dysfunction efficacy model: penile erectile response in vivo. On the procedure:
As described hereinabove, the compounds according to the invention are useful in the treatment and prevention of a variety of disorders and conditions that are affected by levels of nitric oxide (NO) regulated, in part, by arginase enzymes. The compounds are assessed for efficacy in such treatment and prevention by their performances in standardized in vivo tests. In vivo models to assess efficacy are developed for this purpose as described below.
The inventive compounds are candidate therapeutics for treating ED, as assessed by measurements of penile erectile response according to a protocol described by Wingard C, Fulton J, and Husain S, J Sex Med 4: 348-363, 2007.

Test [4] relates to bacterial arginase. As to conditions: H. pylori; cited from earlier work.
For test [5], the system named is central airways. The conditions noted are these: murine chronic model; cited from earlier work.
Test [6] has as its target T1, human arginase I (ARG I) (Homo sapiens, UniProt P05089).
T1 sequence (P05089 1-322): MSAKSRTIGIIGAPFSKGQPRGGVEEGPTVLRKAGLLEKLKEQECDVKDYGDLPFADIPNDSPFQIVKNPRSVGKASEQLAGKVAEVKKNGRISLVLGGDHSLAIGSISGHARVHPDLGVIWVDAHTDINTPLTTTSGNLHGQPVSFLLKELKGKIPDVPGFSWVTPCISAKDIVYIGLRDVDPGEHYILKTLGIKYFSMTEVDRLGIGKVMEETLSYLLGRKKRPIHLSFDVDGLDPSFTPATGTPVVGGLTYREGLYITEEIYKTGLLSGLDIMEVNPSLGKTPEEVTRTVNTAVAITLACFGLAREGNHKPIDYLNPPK
Description: Inhibition of arginase I, spectrophotometric urea assay at 530 nm. Format: biochemical. As to conditions: Formula I compounds, Table 2; read-out: Potency (ARG I). An outline of the steps: (§1)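 IC50 was derived by regression of OD530 normalized to uninhibited-enzyme controls against log concentration. Urea from 60-min, 37 °C turnover of L-arginine with manganese sulfate was detected after acid o-phthaldialdehyde/primaquine quench and 10 min colour development. Arginase I and II came from 100 ng/ml stocks in pH 7.4 phosphate with ovalbumin.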

For test [7], the target named is T2, arginase II (ARG II) (Homo sapiens, UniProt P78540).
T2 sequence (P78540 23-354): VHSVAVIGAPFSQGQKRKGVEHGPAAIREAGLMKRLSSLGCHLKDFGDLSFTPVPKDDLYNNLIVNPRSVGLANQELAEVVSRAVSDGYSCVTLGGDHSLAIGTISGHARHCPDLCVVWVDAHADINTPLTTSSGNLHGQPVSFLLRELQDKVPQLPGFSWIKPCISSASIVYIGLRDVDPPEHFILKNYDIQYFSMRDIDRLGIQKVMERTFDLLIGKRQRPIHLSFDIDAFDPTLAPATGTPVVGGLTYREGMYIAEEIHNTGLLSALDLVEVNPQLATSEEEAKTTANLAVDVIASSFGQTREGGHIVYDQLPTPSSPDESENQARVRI
Put plainly: Inhibition of arginase II, spectrophotometric urea assay at 530 nm. Format: biochemical. The conditions noted are these: Formula I compounds, Table 2; read-out: Potency (ARG II). In a few lines: as §1

For test [8] the following is noted: spontaneously hypertensive animals; cited from earlier work.

Structures are written as SMILES. Structures can show the parent of a compound that is named as a salt.

Regarding `O=c1[nH]cc(F)c(=O)[nH]1` [5-Fluorouracil], in test [1], the MDSC immunesuppression result is listed as “eliminates MDSC immunesuppression” and the tumor growth entry is on record as “delayed tumor growth”.
As for `NC(CCCCB(O)O)C(=O)O` (centres unmarked) [ABH, amino-6-boronohexanoic acid], in test [2], the “severity of EAE” value is recorded as “much milder form of EAE than in control animals”.
On to `N[C@@](CCCCB(O)O)(CCN1CCCCC1)C(=O)O` [Enantiomer of Ex. 13], for which the “Effect: increased erectile response relative to baseline” value in test [3] (@ 2.5 V stimulation) was 0 (0 <10%). Moreover, in test [3] (in words), the “eliciting erectile responses in vivo” value was “is not”.
As for `NC(=NCCC[C@H](N)C(=O)O)NO` [NOHA], in test [4], the “CD3 expression on T-cells” value is “reestablished CD3 expression on T-cells” and the “production of NO by macrophages” value is “enhanced production of NO by macrophages”.
Regarding `N[C@@H](CSCCB(O)O)C(=O)O` [S-(2-boronoethyl)-L-cysteine], the “methacholine induced responsiveness of the central airways” value in test [5] is given as “attenuated”.
Take `CNC(CCCCB(O)O)(CCCNCc1ccc(Cl)c(Cl)c1)C(=O)O` (centres unmarked) [compound 136, 6-borono-2-(3-(3,4-dichlorobenzylamino)propyl)-2-(methylamino)hexanoic acid dihydrochloride]: the IC50 in test [6] and in test [7] was 0.1 to 250 nM each time.
Regarding `CNC(CCCCB(O)O)(CCCN1CCCC1)C(=O)O` (centres unmarked) [compound 137, 6-borono-2-(methylamino)-2-(3-(pyrrolidin-1-yl)propyl)hexanoic acid dihydrochloride], the IC50 in test [6] and in test [7] was 0.1 to 250 nM throughout.
On to `CNC(CCCCB(O)O)(CCCNC1Cc2ccccc2C1)C(=O)O` (centres unmarked) [compound 138, 6-borono-2-(3-(2,3-dihydro-1H-inden-2-ylamino)propyl)-2-(methylamino)hexanoic acid dihydrochloride], for which the IC50 in test [6] and in test [7] was 0.1 to 250 nM each time.
For the molecule `CNC(CCCCB(O)O)(CCCNCc1ccc(Cl)cc1)C(=O)O` (centres unmarked) [compound 139, 6-borono-2-(3-(4-chlorobenzylamino)propyl)-2-(methylamino)hexanoic acid dihydrochloride], the IC50 in test [6] and in test [7] was 0.1 to 250 nM throughout.
On to `NC(CCCCB(O)O)(CCCNCCc1ccc(Cl)cc1Cl)C(=O)O` (centres unmarked) [compound 140, 2-amino-6-borono-2-(3-(2,4-dichlorophenethylamino)propyl)hexanoic acid dihydrochloride], for which the IC50 in test [6] and in test [7] was 0.1 to 250 nM each time.
With `NC(CCCCB(O)O)(CCCNCc1ccc(Cl)c(Cl)c1)C(=O)O` (centres unmarked) [compound 141, 2-amino-6-borono-2-(3-(3,4-dichlorobenzylamino)propyl)hexanoic acid dihydrochloride], the IC50 in test [6] and in test [7] was 0.1 to 250 nM in each case.
Consider `NC(CCCCB(O)O)(CC[C@@H]1CCCN1)C(=O)O` (stereo partly drawn) [compound 143, 2-amino-6-borono-2-(2-((S)-pyrrolidin-2-yl)ethyl)hexanoic acid dihydrochloride], for which the IC50 in test [6] and in test [7] was 0.1 to 250 nM in each case.
On to `CNC(CCCCB(O)O)(CC[C@@H]1CCCN1)C(=O)O` (stereo partly drawn) [compound 144, 6-borono-2-(methylamino)-2-(2-((S)-pyrrolidin-2-yl)ethyl)hexanoic acid dihydrochloride], for which the IC50 in test [6] and in test [7] was 0.1 to 250 nM in each case.
Regarding `O=C(O)C(CCCCB(O)O)NCc1ccc(Cl)cc1` (centres unmarked) [compound 145, 6-borono-2-(4-chlorobenzylamino)hexanoic acid hydrochloride], the IC50 in test [6] and in test [7] was 1000 to 2000 nM each time.
In the case of `CNC(CCCCB(O)O)C(=O)O` (centres unmarked) [compound 146, 6-borono-2-(methylamino)hexanoic acid hydrochloride], the IC50 in test [6] lay in the range of 1000 to 2000 nM; in test [7] it was 2000 to 5000 nM.
For `NC(CCCCB(O)O)(CCCN1CCCCC1)C(=O)O` (centres unmarked) [compound 147, 2-amino-6-borono-2-(3-(piperidin-1-yl)propyl)hexanoic acid dihydrochloride], the IC50 in test [6] was in the range of 0.1 to 250 nM; in test [7], 251 to 1000 nM.
Turning to `CNC(CCCCB(O)O)(CCCN1CCCCC1)C(=O)O` (centres unmarked) [compound 148, 6-borono-2-(methylamino)-2-(3-(piperidin-1-yl)propyl)hexanoic acid dihydrochloride], the IC50 in test [6] and in test [7] was 0.1 to 250 nM each time.
For `CNC(CCCCB(O)O)(CCN1CCCCC1)C(=O)O` (centres unmarked) [compound 149, 6-borono-2-(methylamino)-2-(2-(piperidin-1-yl)ethyl)hexanoic acid], the IC50 in test [6] and in test [7] was 0.1 to 250 nM in each case.
On to `Nc1ccn([C@@H]2O[C@H](CO)[C@@H](O)C2(F)F)c(=O)n1` [gemcitabine], for which, in test [1], the MDSC immunesuppression entry is given as “eliminates MDSC immunesuppression” and the tumor growth result is on record as “delayed tumor growth”.
Take `N=C(NO)NCC[C@H](N)C(=O)O` [nor-NOHA, N^ω-hydroxy-nor-L-arginine]: in test [8], the blood pressure entry was “lowered blood pressure”; the “vascular response of resistance vessels to blood flow and pressure” value is “improved the vascular response of resistance vessels to blood flow and pressure”.
